# Reference: US5061720A, “Substituted-4-thiazolidinone derivatives” (A. H. Robins Company, Inc., priority 1989, dated 1991)
# Legend:
# [1] = test system: guinea pig skin; experiment: UV-Erythema in Guinea Pigs; format: in vivo; set-up: key: +: active; -: inactive; settings: topical, 50 μL of cream with 1.0 mg test article per 1 g, immediately after UV exposure; active = composite score significantly lower than control, Dunnett's t-test p≤0.05
# Procedure: I. Preparation of Formulation (cream)
# All drugs tested were prepared by thoroughly incorporating 1.0 mg of the test article into 1 g of a pH 7.0 cream vehicle of the following composition.
# methyl glucose sesquistearate 1.6%
# methyl gluceth-20 sesquistearate 2.4%
# emulsifying wax, N.F. 5.0%
# mineral oil (heavy), U.S.P. 1.0%
# white petrolatum, U.S.P. 5.0%
# stearic acid, U.S.P. 2.5%
# sodium benzoate, N.F. 0.1%
# magnesium aluminum silicate 1.5%
# deionized water, pH 7.0 64.8%
# The preparations were packed into 1-cc plastic syringes.
# II. Pharmacological Assay
# The backs of female, English short hair guinea pigs (250-500 g) were shaved and depilated with Nair®. Control and treated groups each consisted of 5 animals, and selection of the animals and the control and treatment groups was achieved by random procedures. A rubber sheet with three one-half inch holes spaced one-half inch apart was draped over backs of the guinea pigs. The guinea pigs were then exposed to ultraviolet (UV) light (Hanovia Model 10, ~650-800 μW/cm^2) for 15 seconds by holding the animals against the light source. Fifty μL of the test drug or reference drug (indomethacin or bromfenac) preparation were immediately rubbed onto the skin, either on the area exposed to UV light or to an area adjacent to the UV light exposed skin. The degree of erythema for each exposed area was scored at various times following exposure according to the following scale:
# 1=slight redness with faint outline
# 2=moderate to marked redness with distinct outline
# The score was totaled for each guinea pig (maximum score is 6). The Dunnett's t-test was used to determine significant (p≤0.05) differences from the control (placebo treated) group.
# [2] = target: T1, 5-lipoxygenase (Homo sapiens, UniProt P09917); experiment: 5-Lipoxygenase Assay (production of 5-HETE from arachidonic acid in polymorphonuclear leukocytes stimulated by A23187); format: cell-based; settings: inhibition of production of 5-HETE, human PMN cells, calcium ionophore A23187, 37° C.
# T1 construct: Polymorphonuclear leukocytes were obtained from whole human blood; endogenous in cells; host or cells: human polymorphonuclear leukocytes from whole blood, stimulated with A23187
# T1 sequence (P09917 1-674): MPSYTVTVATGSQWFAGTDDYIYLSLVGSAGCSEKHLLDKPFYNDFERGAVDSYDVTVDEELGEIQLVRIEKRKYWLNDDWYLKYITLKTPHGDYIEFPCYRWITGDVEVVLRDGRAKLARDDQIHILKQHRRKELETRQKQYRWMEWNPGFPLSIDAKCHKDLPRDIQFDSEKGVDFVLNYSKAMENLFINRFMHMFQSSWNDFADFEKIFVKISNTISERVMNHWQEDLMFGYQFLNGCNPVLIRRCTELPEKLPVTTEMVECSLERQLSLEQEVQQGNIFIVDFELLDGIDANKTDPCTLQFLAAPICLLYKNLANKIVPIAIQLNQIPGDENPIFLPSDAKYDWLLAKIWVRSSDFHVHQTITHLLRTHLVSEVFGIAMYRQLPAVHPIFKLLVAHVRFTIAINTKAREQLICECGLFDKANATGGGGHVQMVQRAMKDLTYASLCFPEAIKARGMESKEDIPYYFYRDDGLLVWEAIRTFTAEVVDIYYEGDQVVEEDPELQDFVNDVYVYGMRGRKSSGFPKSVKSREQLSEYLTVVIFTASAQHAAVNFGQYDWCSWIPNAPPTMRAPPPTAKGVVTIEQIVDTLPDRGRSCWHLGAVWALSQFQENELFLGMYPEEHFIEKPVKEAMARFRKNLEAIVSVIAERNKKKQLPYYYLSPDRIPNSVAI
# Procedure: The production of 5-HETE from arachidonic acid in human polymorphonuclear leukocytes stimulated by the calcium ionophore A23187 (Calbiochemicals) was measured by reverse phase high pressure liquid chromatography. This procedure is a modification of the procedure of Sun and McGuire, PROSTAGLANDINS, 26, 211-221 (1983). Addition of substances to the test system that inhibit 5-lipoxygenases cause a decrease in the production of 5-HETE and is thus determined in comparison to reference and control articles also added to the reaction system.
# Polymorphonuclear leukocytes were obtained from whole human blood by the procedure of Skoog and Beck, BLOOD, 11, 436-454 (1956). […] The tube is incubated for an additional 10 min at 37° C. and the incubations terminated by addition of 1.5 mL of acetone and cooling to 0° C. 13-Hydroxyoctadecatrienoic acid (13-HODT) (5 μL of 0.2 mM methanolic solution) is added for an internal reference standard. The tube is stored at -20° C. under argon for 4-18 hr. Centrifugation at 1000×g for 10 min causes protein precipitate to form a pellet. The acetone layer is evaporated under a stream of nitrogen and the resultant lipid residue containing the arachidonic acid metabolites and 13-HODT is dissolved in 0.5 mL of methanol and stored at -20° C. until analyzed by high-pressure liquid chromatography (HPLC).
# For analysis, a 150-μL aliquot of the methanol solution is evaporated under a stream of argon. The residue is reconstituted with 100 μL of a 1:1 methanol-water mixture and sonified for 15-20 seconds and the mixture analyzed by HPLC (C18 reversed phase Econophere column, methanol:water:acetic acid 79:25:0.2 v/v/v used for elution). Test, reference, and control articles are evaluated in duplicate. The inhibition is reported as that concentration which will inhibit by 50% the production of 5-HETE.
smiles,measurement,setting,value
"CCCC[C@@H]1S[C@@H](c2cccc(Oc3ccccc3)c2)NC1=O (relative stereo) [Example 83, 5-Butyl-2-(3-phenoxyphenyl)-4-thiazolidinone]","U.V. erythema (+ = active, - = inactive)",[1],-
same,IC50,[2],< 10 µM
"CCCCC1SC(c2cccc(Oc3ccccc3)c2)N(CCCCC(=O)O)C1=O (centres unmarked) [Example 45, 5-Butyl-4-oxo-2-(3-phenoxyphenyl)-3-thiazolidinepentanoic acid]","U.V. erythema (+ = active, - = inactive)",[1],+
same,IC50,[2],~15 µM
"CCCCC1SC(c2cccc(Oc3ccccc3)c2)N(CCCCc2ccccc2)C1=O (centres unmarked) [Example 1, 5-Butyl-2-(3-phenoxyphenyl)-3-(4-phenylbutyl)-4-thiazolidinone]","U.V. erythema (+ = active, - = inactive)",[1],+
same,IC50,[2],> 100 µM
CCCC[C@@H]1S[C@H](c2cccc(Oc3ccccc3)c2)N(CCCCCC(=O)OCC)C1=O (relative stereo) [Example 51],"U.V. erythema (+ = active, - = inactive)",[1],-
same,IC50,[2],~15 µM
"CCCCC1SC(c2cccc(Oc3ccccc3)c2)N(CCc2ccccc2)C1=O (centres unmarked) [Example 17, 5-Butyl-2-(3-phenoxyphenyl)-3-(2-phenylethyl)-4-thiazolidinone]","U.V. erythema (+ = active, - = inactive)",[1],-
same,IC50,[2],10 µM
"CC1SC(c2cccc(Oc3ccccc3)c2)N(CCCCc2ccccc2)C1=O (centres unmarked) [Example 7, 5-Methyl-2-(3-phenoxyphenyl)-3-(4-phenylbutyl)-4-thiazolidinone]","U.V. erythema (+ = active, - = inactive)",[1],+
same,IC50,[2],< 20 µM
"CCCCC1SC(c2cccc(C(=O)c3ccccc3)c2)N(CCCCc2ccccc2)C1=O (centres unmarked) [Example 8, 2-(3-Benzoylphenyl)-5-butyl-3-(4-phenylbutyl)-4-thiazolidinone]","U.V. erythema (+ = active, - = inactive)",[1],+
same,IC50,[2],~100 µM
